Results as given in patent EP4310093A1, “AMINO ACID DERIVATIVE, PREPARATION METHOD THEREFOR, AND PHARMACEUTICAL COMPOSITION FOR TREATING HEPATITIS, COMPRISING SAME” (priority 2021, dated 2022).

Target: T1, NTCP (Homo sapiens, UniProt Q14973)
T1 construct: expressed in transfected cells; host or cells: HepG2-hNTCP-C4
T1 sequence (Q14973 1-349): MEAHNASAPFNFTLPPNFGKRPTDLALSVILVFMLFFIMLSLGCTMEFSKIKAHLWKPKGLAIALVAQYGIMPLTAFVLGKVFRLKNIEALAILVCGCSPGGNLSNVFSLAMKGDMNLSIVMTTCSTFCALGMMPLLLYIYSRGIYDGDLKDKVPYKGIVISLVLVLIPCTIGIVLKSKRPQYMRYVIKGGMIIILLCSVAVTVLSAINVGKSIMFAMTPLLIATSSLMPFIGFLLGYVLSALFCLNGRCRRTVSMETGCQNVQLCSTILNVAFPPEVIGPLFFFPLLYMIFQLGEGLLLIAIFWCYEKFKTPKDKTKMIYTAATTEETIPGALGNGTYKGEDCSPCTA
Test: Inhibition of the binding between PreS1 (FITC-labelled) and NTCP expressing cell lines, flow cytometry
Details: for activity at 50 µM: 2 h, read-out: relative fluorescence intensity compared to the HBV-induced group (HBV PreS1) solely treated with PreS1, 50 µM compound, 20 nM PreS1, HepG2-hNTCP-C4 cell line, 4°C, 2 hours, the lower the value, the more inhibited the binding
Procedure: HepG2-hNTCP-C4 cell line, a cell line expressing NTCP, was seeded in a 6 well plate at a density of 2×10^5/well and incubated at 4°C for 30 minutes when the confluency reached 80% after overnight incubation for 2 days. Thereafter, 20 nM PreS 1 (Myr-[…]-Lys(FITC)) and the compounds in Example 1, Examples 38 to 56 or the compound in Comparative Example 1 were treated by diluting in culture media at 4°C at a concentration of 50 µM respectively, and the media was suctioned after 2 hours, followed by washing 3 times with 4°C PBS. In order to take the cells off from the plate, 500 µl of 0.5 mM EDTA PBS solution was treated, and then incubation was performed at 37°C for 15 minutes to check whether the cells fell off through an optical microscope. After taking off the cells by pipetting, the cells were collected in a 1.5 ml tube and centrifuged (4000 rpm, 4°C, 3 min). After suctioning the supernatant, the pellet was washed 3 times with 4°C PBS, and then green fluorescence was measured via flow cytometry. In this case, taurocholic acid (TCA), a compound known as a substrate of NTCP to reduce the entry of HBV or HDV, was used as a positive control group.
In the graph at the top of FIG. 1, black (1) and red (2) indicate a negative control group with no treatment and an HBV-induced group (HBV preS1) solely treated with PreS1, respectively. Blue (HBV preS1+HBV entry inhibitor) (3) is the fluorescence value for each of Examples or Comparative Examples, evaluated that the closer to the negative control group, the more inhibited the binding between PreS1 and the NTCP cell line.
The experimental method was the same as in the Experimental Example 1-1, and 20 nM PreS1 and each compound were treated at 4 concentrations (0.2 µM, 2 µM, 10 µM, 50 µM).
With an expectation that there is a structure-activity relationship among compounds composed of bile acid and amino acids, for each of bile acids in Comparative Example 1 (lithocholic acid, LCA), Comparative Example 2 (ursodeoxycholic acid, UDCA), Comparative Example 3 (cholic acid, CA), Comparative Example 4 (hyodeoxycholic acid, HDCA), Comparative Example 5 (deoxycholic acid, DCA), and Comparative Example 6 (chenodeoxycholic acid, CDCA), an evaluation experiment was conducted on an ability to inhibit the binding between PreS1 and NTCP expressing cell lines, and also for Examples 1 (LCA-Ile) and Example 44 (LCA-Val) as well as the compounds in Example 2 (UDCA-Ile), Example 3 (UDCA-Val), Example 6 (CA-Ile), Example 7 (CA-Val), Example 8 (HDCA-Ile), Example 9 (HDCA-Val), Example 10 (DCA-Ile), Example 11 (DCA-Val), Example 14 (CDCA-Ile), and Example 15 (CDCA-Val) in which bile acid parts (lithocholic acid) of Example 1 (LCA-Ile) and Example 44 (LCA-Val) were substituted with other types of bile acids in Comparative Examples 2 to 6, an evaluation experiment was conducted on an ability to inhibit the binding between PreS1 and NTCP expressing cell lines. The experimental method was the same as in the Experimental Example 1-1, and 18 compounds in the Comparative Examples 1 to 6, Examples 1 to 3, Examples 6 to 11, Examples 14 to 15, and Example 44 were treated at a concentration of 50 µM along with 20 nM PreS 1. […]
In the Experimental Examples 1-4, it was determined whether there is additionally concentration dependence for Example 4 (UDCA-Trp), a compound with good inhibitory ability. […]

Row | Compound | effect of inhibiting the binding between PreS1 and NTCP expressing cell lines by treatment concentration (2 µM, 10 µM, 20 µM, 50 µM compound, 20 nM PreS1) | activity at 50 µM
1 | C[C@H](CCC(=O)N[C@@H](Cc1c[nH]c2ccccc12)C(=O)O)[C@H]1CC[C@H]2[C@@H]3[C@@H](O)C[C@@H]4C[C@H](O)CC[C@]4(C)[C@H]3CC[C@]12C [Example 4, (S)-2-((R)-4-((3R,5S,7S,8R,9S,10S,13R,14S,17R)-3,7-dihydroxy-10,13-dimethyl-hexadecahydro-1H-cyclopenta[a]phenanthren-17-yl)pentanamido)-3-(1H-indol-3-yl)propanoic acid] | concentration dependent | –
2 | C[C@H](CCC(=O)N1CCCC1C(=O)O)[C@H]1CC[C@H]2[C@@H]3CC[C@@H]4C[C@H](O)CC[C@]4(C)[C@H]3CC[C@]12C (stereo partly drawn) [Example 38, 1-((R)-4-((3R,5R,8R,9S,10S,13R,14S,17R)-3-hydroxy-10,13-dimethyl-hexadecahydro-1H-cyclopenta[a]phenanthren-17-yl)pentanoyl)pyrrolidine-2-carboxylic acid] | – | ≤ 20%
3 | C[C@H](CCC(=O)N[C@@H](CS)C(=O)O)[C@H]1CC[C@H]2[C@@H]3CC[C@@H]4C[C@H](O)CC[C@]4(C)[C@H]3CC[C@]12C [Example 40, (R)-2-((R)-4-((3R,5R,8R,9S,10S,13R,14S,17R)-3-hydroxy-10,13-dimethyl-hexadecahydro-1H-cyclopenta[a]phenanthren-17-yl)pentanamido)-3-mercaptopropanoic acid] | – | ≤ 20%
4 | CC(C)C[C@H](NC(=O)CC[C@@H](C)[C@H]1CC[C@H]2[C@@H]3CC[C@@H]4C[C@H](O)CC[C@]4(C)[C@H]3CC[C@]12C)C(=O)O [Example 47] | – | ≤ 20%
5 | CSCC[C@H](NC(=O)CC[C@@H](C)[C@H]1CC[C@H]2[C@@H]3CC[C@@H]4C[C@H](O)CC[C@]4(C)[C@H]3CC[C@]12C)C(=O)O [Example 48, (S)-2-((R)-4-((3R,5R,8R,9S,10S,13R,14S,17R)-3-hydroxy-10,13-dimethyl-hexadecahydro-1H-cyclopenta[a]phenanthren-17-yl)pentanamido)-4-(methylthio)butanoic acid] | – | ≤ 20%
